US4080466A, “Pharmaceutical compositions containing 4-hydroxyl-1,3-dithiolan-2-ylidene malonates” (Nihon Nohyaku Co., Ltd., priority 1976, dated 1978)
“Also recorded” adds a separate entry of the source.

Legend:
[1] = tested on: alcohol metabolic function of liver; assay: Effect on Concentration of Ethyl alcohol in the Blood; type: in vivo, mice; details: 250 mg/kg oral, 6 h before ethyl alcohol 1,000 mg/kg
Procedure: After 6 hours, 1,000 mg/kg of ethyl alcohol was given orally. Blood was taken in a capillary from caudal vein at the time indicated in the results. The plasma was obtained by centrifugation. The concentration of ethyl alcohol in the plasma was measured by FID type gas liquid chromatography. Five mice were used for each group.

[2] = tested on: fatty liver induced by ethionine; assay: Effect on Fatty Liver (ethionine); type: in vivo, mouse (dd-strain); details: 250 mg/kg oral, 24 h, 10 animals
Text: But, the fatty liver is grouped into a couple of patterns from the mechanism of lipid accumulation or metabolism of lipoprotein in the liver. Ethionine is a typical example which induces first pattern of fatty liver. It inhibits RNA and protein synthesis and destructs polysome of the liver cell. Fatty liver is induced by inhibition of the protein synthesis and disturbance of lipoprotein secretion.
Usually, fatty liver is closely related to the accumulation of triglyceride in the liver. In the present example, the degree of fatty liver and protective or therapeutic effect against the fatty liver was evaluated by measurement of triglyceride content in the liver. Methods:
The compounds of this invention and methionine were independently dissolved or suspended into olive oil and administered orally to 4 week-old male mouse (dd-strain) at the dose of 250 mg/kg. One hour before it, simultaneously to it, or one hour after it, ethionine dissolved in equimolar NaOH solution was administered intraperitoneally at the dose of 200 mg/kg. Twenty four hours after the administration of ethionine, the animals were sacrificed and triglyceride content in the liver was determined by chromotropic acid method.

[3] = tested on: chronic liver damage induced by thioacetamide; assay: Therapeutic Effect on Chronic Liver Damage (thioacetamide), BSP test; type: in vivo, rats (Spraque Dawley strain); details: normal diet + 0.2% of compound after 12 times TAA 100 mg/kg
Procedure: In the tests of this Example, TAA was repeatedly administered to animals to prepare test animals suffering from somewhat chronic liver damages, and then the present compounds were administered thereto to know whether or not the compounds were effective against chronic hepatitis.
The degree of the liver damage and the therapeutic effects of the compounds were evaluated according to BSP test. The BSP test is a method in which BSP (sulfobromophthalein sodium), a dye known to be quickly metabolized in and excreted from the liver, is intravenously injected into animals and, after a definite period of time, the blood is taken out to measure the amount of BSP remaining in the plasma. In case the animals are suffering from the lever damage, the dye will remain, according to the degree of the damage, at the stage where a major portion of BSP metabolized and excreted in the case of normal animals.
Five groups of rats (Spraque Dawley strain) were treated as follows:
Group A: The rats were orally administered with 100 mg/kg of thioacetamide,at 3 days intervals for 36 days (12 times of the administration), then were submitted for 10 days to a normal diet.
Group B: The rats were orally administered with 100 mg/kg of thioacetamide at 3 days intervals for 36 days (12 times of the administration), then were submitted for 10 days to the normal diet + 0.2% of compound 4.
Group C: The rats were orally administered with 100 mg/kg of thioacetamide at 3 days intervals for 36 days (12 times of the administration), then were submitted for 10 days to the normal diet + 0.2% of compound 2.
Group D: The rats were orally administered with 100 mg/kg of thioacetamide at 3 days intervals for 36 days (12 times of the administration), then were submitted for 10 days to the normal diet + 0.2% of anethol trithion.
Group E: The rats were submitted to the normal diet as the control.
Five rats were sacrificed from each group at appropriate intervals for BSP (sulfobromophthalein) test, the results of which were shown as amounts (mg) of BSP remaining in 1 dl of plasma.

[4] = tested on: bile flow; assay: Cholagogic Action: effect on bile flow; type: in vivo, rats (SD-JCL strain); details: 200 mg/kg oral; for Bile flow: before treatment = 100; for Quantity of total excreted bile relative to control: 5 hours after administration
Procedure: (§1) Drugs as choleresis are used for patients to improve bile flow. In the present example, the effect of the compound of the invention on the quantities of bile and biliary salt is investigated. Methods:
(§2) The male rats (4 week-aged, SD-JCL strain) were anesthetized with sodium pentobarbital (37.5 mg/kg, intraperitoneal injection). The abdominal cavity was opened through a midline incision. The common bile duct was catheterized with polyethylene tube o.d. 0.8 mm. The catheter was brought to the outside through the abdominal incision would prior to closing. Bile was collected from the catheter continuously with time intervals of one hour. The quantity of bile produced in one hour was determined by weighing and that of biliary salt was determined by enzymatic method (Ikagaku Jikkenho Koza 1B, Biological Constituents II, edited by Tamio YAMAKAWA). The amount of biliary salt was represented in the term of cholic acid equivalent.
(§3) In the representation of the results, the quantities of bile and biliary salt produced in one hour prior to the administration of drug were taken as 100. The compound of this invention was orally administered at the dose of 200 mg/kg. As reference, anethol trithion was used.

[5] = tested on: excretion of biliary salt; assay: Cholagogic Action: effect on the excretion of biliary salt; type: in vivo, rats (SD-JCL strain); details: 200 mg/kg oral; for Excretion of biliary salt: before treatment = 100; for Amount of total excreted biliary salts relative to control: 5 hours after administration
Procedure: as §1, §2, §3

[6] = tested on: fatty liver induced by carbon tetrachloride; assay: Therapeutic Effect on Fatty Liver (carbon tetrachloride); type: in vivo, rats (SD strain); details: 10 days; for Degree of fatty liver (histopathological examination): one symbol per animal
Procedure: Methods: […] The treated animals were left for 3 days after the last administration to maximize the manifestation of fatty liver. […] It was orally given everyday for 10 days at the dose of 50 or 250 mg/kg. On the 11th day, the animals were sacrificed. The therapeutic effect was evaluated by determining the content of liquid in the liver (triglyceride and total lipid) and examining the histopathological changes. Triglyceride and total lipid were determined colorimetrically by chromotropic acid method and Bragdon's oxidation method, respectively. Indices for the histopathological change is as follows: […]

[7] = compound 1 hr before ethionine (200 mg/kg i.p.)
[8] = simultaneous with ethionine (0 hr)

Row | SMILES | Concentration of Ethyl alcohol in Plasma ([1]; 0 min) | Concentration of Ethyl alcohol in Plasma ([1]; 5 min) | Concentration of Ethyl alcohol in Plasma ([1]; 15 min) | Concentration of Ethyl alcohol in Plasma ([1]; 30 min) | Concentration of Ethyl alcohol in Plasma ([1]; 60 min) | Triglyceride ([2]; compound 1 hr after ethionine) | Triglyceride [2, 7] | Triglyceride [2, 8] | BSP remaining in plasma ([3]; 2 days) | BSP remaining in plasma ([3]; 5 days) | BSP remaining in plasma ([3]; 10 days) | Bile flow ([4]; 1 hour after treatment) | Bile flow ([4]; 2 hours after treatment) | Bile flow ([4]; 3 hours after treatment) | Bile flow ([4]; 4 hours after treatment) | Quantity of total excreted bile relative to control [4] | Bile flow ([4]; 5 hours after treatment) | Excretion of biliary salt ([5]; 1 hour after treatment) | Excretion of biliary salt ([5]; 2 hours after treatment) | Excretion of biliary salt ([5]; 3 hours after treatment) | other results
1 | CC(C)OC(=O)C(C(=O)OC(C)C)=C1SCC(O)S1 (stereo not shown) [Compound 2, Diisopropyl 4-hydroxy-1,3-dithiolan-2-ylidene malonate] | 10±7 ppm | 711±95 ppm | 558±104 ppm | 426±96 ppm | 13±6 ppm | 11.8 ± 0.39 mg/g-liver | 10.3 ± 0.96 mg/g-liver | 6.9 ± 0.38 mg/g-liver | 7.0 ± 2.8 mg/dL | 3.1 ± 0.7 mg/dL | 0.8 ± 0.2 mg/dL | 112 ± 2.4 | 117 ± 6.8 | 101 ± 7.0 | 97 ± 8.3 | 1.13 times | 80 ± 7.3 | 102 ± 7.3 | 100 ± 5.8 | 106 ± 7.9 | Excretion of biliary salt ([5]; 4 hours after treatment): 97 ± 7.2; Amount of total excreted biliary salts relative to control [5]: 1.43 times; Excretion of biliary salt ([5]; 5 hours after treatment): 90 ± 5.3; Total lipid ([6]; 50 mg/kg oral): 82.3 ± 15.1 mg/g-liver; Triglyceride ([6]; 50 mg/kg oral): 38.6 ± 8.5 mg/g-liver; Degree of fatty liver (histopathological examination) ([6]; 50 mg/kg oral): ± ± + ± ± + ±; Total lipid ([6]; 250 mg/kg oral): 68.3 ± 10.3 mg/g-liver; Triglyceride ([6]; 250 mg/kg oral): 21.6 ± 7.3 mg/g-liver; Degree of fatty liver (histopathological examination) ([6]; 250 mg/kg oral): - - ± ± ± ± -
2 | CCOC(=O)C(C(=O)OC(C)C)=C1SCC(O)S1 (stereo not shown) [Compound 4, Ethyl isopropyl 4-hydroxy-1,3-dithiolan-2-ylidene malonate] | 9±4 ppm | 730±92 ppm | 536±113 ppm | 373±105 ppm | 7±2 ppm | 12.8 ± 0.92 mg/g-liver | 12.0 ± 0.77 mg/g-liver | 6.7 ± 0.43 mg/g-liver | 7.2 ± 1.2 mg/dL | 3.6 ± 0.5 mg/dL | 0.3 ± 0.1 mg/dL | 108 ± 2.1 | 120 ± 7.7 | 107 ± 6.8 | 98 ± 7.2 | 1.11 times | 88 ± 5.3 | 100 ± 7.2 | 106 ± 7.8 | 98 ± 4.3 | Excretion of biliary salt ([5]; 4 hours after treatment): 90 ± 7.7; Amount of total excreted biliary salts relative to control [5]: 1.37 times; Excretion of biliary salt ([5]; 5 hours after treatment): 82 ± 6.8; Total lipid ([6]; 50 mg/kg oral): 87.6 ± 7.2 mg/g-liver; Triglyceride ([6]; 50 mg/kg oral): 40.6 ± 8.2 mg/g-liver; Degree of fatty liver (histopathological examination) ([6]; 50 mg/kg oral): + + + ++; also recorded: ± ± + ± ± ± +; Total lipid ([6]; 250 mg/kg oral): 70.3 ± 7.7 mg/g-liver; Triglyceride ([6]; 250 mg/kg oral): 25.3 ± 4.2 mg/g-liver; Degree of fatty liver (histopathological examination) ([6]; 250 mg/kg oral): ± ± ± - - - ±
